# Numbering of substitutions follows the chain as printed. pIC50: −log10 of the molar value.
# How the values were obtained:
# [1] = molecular target: T1, Abl kinase (SEQ ID NO: 1) (Homo sapiens, UniProt P00519); assay: Abl kinase (SEQ ID NO:1) assay, pyruvate kinase/lactate dehydrogenase coupled; conditions: 2 h preincubation, ATP 500 μM; read-out: Biochemical IC50, Abl Enzyme Assay
# T1 construct: purchased deCode Genetics
# T1 sequence (P00519 with tags, fused parts or gaps): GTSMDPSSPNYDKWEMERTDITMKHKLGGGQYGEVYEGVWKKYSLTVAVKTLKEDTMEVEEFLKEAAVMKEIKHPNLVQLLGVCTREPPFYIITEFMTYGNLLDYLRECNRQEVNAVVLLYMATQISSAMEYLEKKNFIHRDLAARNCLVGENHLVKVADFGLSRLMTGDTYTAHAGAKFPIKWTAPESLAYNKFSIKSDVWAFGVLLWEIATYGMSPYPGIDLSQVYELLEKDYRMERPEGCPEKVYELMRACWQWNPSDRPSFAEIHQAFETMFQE
# Method: Abl Kinase (SEQ ID NO:1) Assay
# Activity of Abl kinase (SEQ ID NO: 1) was determined by following the production of ADP from the kinase reaction through coupling with the pyruvate kinase/lactate dehydrogenase system (e.g., Schindler, et al. Science (2000) 289, 1938-1942). In this assay, the oxidation of NADH (thus the decrease at A340 nm) was continuously monitored spectrophometrically. The reaction mixture (100 μl) contained Abl kinase (1 nM. Abl from deCode Genetics), peptide substrate (EAIYAAPFAKKK, 0.2 mM), MgCl2 (10 mM), pyruvate kinase (4 units), lactate dehydrogenase (0.7 units), phosphoenol pyruvate (1 mM), and NADH (0.28 mM) in 90 mM Tris buffer containing 0.2% octyl-glucoside and 3.5% DMSO, pH 7.5. Test compounds were incubated with Abl (SEQ ID NO:1) and other reaction reagents at 30° C. for 2 h before ATP (500 μM) was added to start the reaction. The absorption at 340 nm was monitored continuously for 2 hours at 30° C. on Polarstar Optima plate reader (BMG). The reaction rate was calculated using the 1.0 to 2.0 h time frame. Percent inhibition was obtained by comparison of reaction rate with that of a control (i.e. with no test compound). IC50 values were calculated from a series of percent inhibition values determined at a range of inhibitor concentrations using software routines as implemented in the GraphPad Prism software package.
# [2] = molecular target: T2, C-Met kinase (SEQ ID NO:10) (Homo sapiens, UniProt P08581); assay: C-Met kinase (SEQ ID NO:10) assay, pyruvate kinase/lactate dehydrogenase coupled; conditions: 0.5 h preincubation, ATP 100 μM; read-out: Biochemical IC50, c-Met Enzyme Assay
# T2 construct: 956-1390, from Invitrogen, catalogue #PV3143; His6 (N-terminal leader MSYYHHHHHH... with TEV and thrombin sites) (N); purchased Invitrogen PV3143
# Method: C-Met Kinase (SEQ ID NO:10) Assay
# Activity of C-Met kinase (SEQ ID NO:10) was determined by following the production of ADP from the kinase reaction through coupling with the pyruvate kinase/lactate dehydrogenase system (e.g., Schindler, et al. Science (2000) 289, 1938-1942). In this assay, the oxidation of NADH (thus the decrease at A340 nm) was continuously monitored spectrophometrically. The reaction mixture (100 μl) contained C-Met (c-Met residues; 956-1390, from Invitrogen, catalogue #PV3143, […]), polyE4Y (1 mg/ml), MgCl2 (10 mM), pyruvate kinase (4 units), lactate dehydrogenase (0.7 units), phosphoenol pyruvate (1 mM), and NADH (0.28 mM) in 90 mM Tris buffer containing 0.25 mM DTT, 0.2% octyl-glucoside and 1% DMSO, pH 7.5. Test compounds were incubated with C-Met (SEQ ID NO:10) and other reaction reagents at 22° C. for 0.5 h before ATP (100 μM) was added to start the reaction. The absorption at 340 nm was monitored continuously for 2 hours at 30° C. on Polarstar Optima plate reader (BMG). The reaction rate was calculated using the 1.0 to 2.0 h time frame. Percent inhibition was obtained by comparison of reaction rate with that of a control (i.e. with no test compound). IC50 values were calculated from a series of percent inhibition values determined at a range of inhibitor concentrations using software routines as implemented in the GraphPad Prism software package.
# [3] = molecular target: T3, BaF3 cells transfected with wild type p210 BCR-Abl (Homo sapiens, UniProt P00519); assay: Ba/F3 p210 whole cell proliferation assay; type: cell-based; conditions: 72 hours, Cell Titer Blue; read-out: Whole Cell Antiproliferation IC50, Ba/F3 p210 whole cell proliferation assay
# T3 construct: fused on or other part: P11274 (Breakpoint cluster region protein)
# Method: (§1) BaF3 cells (parental or transfected with the following: wild type p210 BCR-Abl and T315I p210 BCR-Abl was obtained from Professor Richard Van Etten (New England Medical Center, Boston, Mass.). Briefly, cells were grown in RPMI 1640 supplemented with 10% characterized fetal bovine serum (HyClone, Logan, Utah) at 37 degrees Celsius, 5% CO2, 95% humidity. Cells were allowed to expand until reaching 80% saturation at which point they were subcultured or harvested for assay use.
# (§2) A serial dilution of test compound was dispensed into a 96 well black clear bottom plate (Corning, Corning, N.Y.). For each cell line, three thousand cells were added per well in complete growth medium. Plates were incubated for 72 hours at 37 degrees Celsius, 5% CO2, 95% humidity. At the end of the incubation period Cell Titer Blue (Promega, Madison, Wis.) was added to each well and an additional 4.5 hour incubation at 37 degrees Celsius, 5% CO2, 95% humidity was performed. Plates were then read on a BMG Fluostar Optima (BMG, Durham, N.C.) using an excitation of 544 nm and an emission of 612 nm. Data was analyzed using Prism software (Graphpad, San Diego, Calif.) to calculate IC50's.
# [4] = molecular target: T4, BaF3 cells transfected with T315I p210 BCR-Abl (Homo sapiens, UniProt P00519, T315I, cells depend on it); assay: Ba/F3 p210 T315I whole cell proliferation assay; type: cell-based; conditions: 72 hours, Cell Titer Blue; read-out: Whole Cell Antiproliferation IC50, Ba/F3 p210 T315I whole cell proliferation assay
# T4 construct: fused on or other part: P11274 (Breakpoint cluster region protein)
# Method: as §1, §2
# [5] = molecular target: T5, T315I Abl kinase (SEQ ID NO:2) (Homo sapiens, UniProt P00519, T315I); assay: T315I Abl kinase (SEQ ID NO:2) assay, pyruvate kinase/lactate dehydrogenase coupled; conditions: 1 h preincubation, ATP 500 μM; read-out: Biochemical IC50, Abl T315I Enzyme Assay
# T5 construct: purchased deCode Genetics
# T5 sequence (P00519 with tags, fused parts or gaps T315I): T1 sequence (P00519 with tags, fused parts or gaps) with T94I
# Method: Abl Kinase (SEQ ID NO:2) Assay
# Activity of T315I Abl kinase (SEQ ID NO:2) was determined by following the production of ADP from the kinase reaction through coupling with the pyruvate kinase/lactate dehydrogenase system (e.g., Schindler, et al. Science (2000) 289, 1938-1942). In this assay, the oxidation of NADH (thus the decrease at A340 nm) was continuously monitored spectrophometrically. The reaction mixture (100 μl) contained Abl kinase (4.4 nM, […] Abl from deCode Genetics), peptide substrate (EAIYAAPFAKKK, 0.2 mM), MgCl2 (10 mM), pyruvate kinase (4 units), lactate dehydrogenase (0.7 units), phosphoenol pyruvate (1 mM), and NADH (0.28 mM) in 90 mM Tris buffer containing 0.2% octyl-glucoside and 1% DMSO, pH 7.5. Test compounds were incubated with T315I Abl (SEQ ID NO:2) and other reaction reagents at 30° C. for 1 h before ATP (500 μM) was added to start the reaction. The absorption at 340 nm was monitored continuously for 2 hours at 30° C. on Polarstar Optima plate reader (BMG). The reaction rate was calculated using the 1.0 to 2.0 h time frame. Percent inhibition was obtained by comparison of reaction rate with that of a control (i.e. with no test compound). IC50 values were calculated from a series of percent inhibition values determined at a range of inhibitor concentrations using software routines as implemented in the GraphPad Prism software package.
# T2 sequence (P08581 with tags, fused parts or gaps): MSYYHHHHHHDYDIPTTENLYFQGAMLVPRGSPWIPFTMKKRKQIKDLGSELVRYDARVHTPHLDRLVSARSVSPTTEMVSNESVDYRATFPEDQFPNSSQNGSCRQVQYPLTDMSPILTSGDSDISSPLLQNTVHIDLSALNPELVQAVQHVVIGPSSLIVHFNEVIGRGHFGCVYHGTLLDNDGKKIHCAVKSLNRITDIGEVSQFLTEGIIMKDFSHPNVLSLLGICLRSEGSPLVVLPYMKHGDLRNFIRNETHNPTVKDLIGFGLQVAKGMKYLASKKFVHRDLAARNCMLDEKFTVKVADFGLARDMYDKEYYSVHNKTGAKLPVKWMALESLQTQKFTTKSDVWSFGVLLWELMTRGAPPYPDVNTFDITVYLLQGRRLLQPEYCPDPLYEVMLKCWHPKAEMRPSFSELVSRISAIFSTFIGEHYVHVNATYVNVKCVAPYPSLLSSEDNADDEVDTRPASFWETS
SMILES,pIC50 [1],pIC50 [2],GI50 [3],GI50 [4],pIC50 [5]
"CC(C)n1cc(NC(=O)Nc2ccc(Oc3ccnc(-c4cnn(C)c4)c3)cc2F)c(C(F)(F)F)n1 [Example 18, 1-(2-fluoro-4-(2-(1-methyl-1H-pyrazol-4-yl)pyridin-4-yloxy)phenyl)-3-(1-isopropyl-3-(trifluoromethyl)-1H-pyrazol-4-yl)urea]",> 7.00,> 5.00,< 100 nM,< 100 nM,–
"Cc1c(NC(=O)Nc2ccc(Oc3ccnc(-c4cnn(C)c4)c3)cc2F)cnn1C1CCCC1 [Example 23, 1-(1-cyclopentyl-5-methyl-1H-pyrazol-4-yl)-3-(2-fluoro-4-(2-(1-methyl-1H-pyrazol-4-yl)pyridin-4-yloxy)phenyl)urea]",> 7.00,–,< 100 nM,< 1000 nM,–
"Cn1cc(-c2cc(Oc3ccc(NC(=O)Nc4nc5ccc(F)cc5s4)c(F)c3)ccn2)cn1 [Example 29, 1-(2-fluoro-4-(2-(1-methyl-1H-pyrazol-4-yl)pyridin-4-yloxy)phenyl)-3-(6-fluorobenzo[d]thiazol-2-yl)urea]",> 7.00,–,< 1000 nM,< 100000 nM,–
"Cc1c(C(C)(C)C)noc1NC(=O)Nc1ccc(Oc2ccnc(-c3cnn(C)c3)c2)cc1F [Example 31, 1-(3-tert-butyl-4-methylisoxazol-5-yl)-3-(2-fluoro-4-(2-(1-methyl-1H-pyrazol-4-yl)pyridin-4-yloxy)phenyl)urea]",> 7.00,–,< 100 nM,< 100 nM,> 7.00
"CCc1cncc(NC(=O)Nc2ccc(Oc3ccnc(-c4cnn(C)c4)c3)cc2F)c1 [Example 32, 1-(5-ethylpyridin-3-yl)-3-(2-fluoro-4-(2-(1-methyl-1H-pyrazol-4-yl)pyridin-4-yloxy)phenyl)urea]",> 7.00,–,< 100 nM,< 100 nM,> 7.00
"Cn1cc(-c2cc(Oc3ccc(NC(=O)Nc4cc(C5CC5)nn4C)c(F)c3)ccn2)cn1 [Example 33, 1-(3-cyclopropyl-1-methyl-1H-pyrazol-5-yl)-3-(2-fluoro-4-(2-(1-methyl-1H-pyrazol-4-yl)pyridin-4-yloxy)phenyl)urea]",> 6.00,–,< 1000 nM,< 1000 nM,> 6.00
"CC(C)n1cnc(NC(=O)Nc2ccc(Oc3ccnc(-c4cnn(C)c4)c3)cc2F)c1 [Example 34, 1-(2-fluoro-4-(2-(1-methyl-1H-pyrazol-4-yl)pyridin-4-yloxy)phenyl)-3-(1-isopropyl-1H-imidazol-4-yl)urea]",> 7.00,–,< 100 nM,< 1000 nM,> 7.00
"Cc1ncc(C(F)(F)F)cc1NC(=O)Nc1ccc(Oc2ccnc(-c3cnn(C)c3)c2)cc1F [Example 37, 1-(2-fluoro-4-(2-(1-methyl-1H-pyrazol-4-yl)pyridin-4-yloxy)phenyl)-3-(2-methyl-5-(trifluoromethyl)pyridin-3-yl)urea]",> 7.00,–,< 100 nM,< 100 nM,> 7.00

# Other lines, results leading:
pIC50 [1],pIC50 [2],GI50 [3],GI50 [4],pIC50 [5],SMILES
> 7.00,–,–,–,–,"Cn1cc(-c2cc(Oc3ccc(NC(=O)Nc4cnc(C(C)(C)C)o4)c(F)c3)ccn2)cn1 [Example 26, 1-(2-tert-butyloxazol-5-yl)-3-(2-fluoro-4-(2-(1-methyl-1H-pyrazol-4-yl)pyridin-4-yloxy)phenyl)urea]"
> 6.00,–,< 1000 nM,< 100000 nM,> 5.00,"Cn1cc(-c2cc(Oc3ccc(NC(=O)NC4CC(=O)N(C(C)(C)C)C4)c(F)c3)ccn2)cn1 (stereo not shown) [Example 35, 1-(1-tert-butyl-5-oxopyrrolidin-3-yl)-3-(2-fluoro-4-(2-(1-methyl-1H-pyrazol-4-yl)pyridin-4-yloxy)phenyl)urea]"
> 6.00,–,< 10000 nM,< 100000 nM,> 5.00,"Cn1cc(-c2cc(Oc3ccc(NC(=O)NC4CCN(C(C)(C)C)C4)c(F)c3)ccn2)cn1 (stereo not shown) [Example 36, 1-(1-tert-butylpyrrolidin-3-yl)-3-(2-fluoro-4-(2-(1-methyl-1H-pyrazol-4-yl)pyridin-4-yloxy)phenyl)urea]"
> 7.00,–,< 1000 nM,< 100000 nM,> 6.00,"Cc1cc(NC(=O)Nc2ccc(Oc3ccnc(-c4cnn(C)c4)c3)cc2F)nn1C(C)(C)C [Example 38, 1-(1-tert-butyl-5-methyl-1H-pyrazol-3-yl)-3-(2-fluoro-4-(2-(1-methyl-1H-pyrazol-4-yl)pyridin-4-yloxy)phenyl)urea]"
